Experimental findings from US20220273596A1, “SYNERGISTIC COMBINATION OF S-KETOROLAC AND PREGABALIN IN A PHARMACEUTICAL COMPOSITION FOR THE TREATMENT OF NEUROPATHIC PAIN” (priority 2019, published 2022) are described below.

The subject of assay [1] is mechanical hyperalgesia in rats with chronic constriction injury (CCI) of the sciatic nerve. The experiment in a line: Von Frey test (mechanical hyperalgesia, 15-gram filament) in rats with chronic constriction injury of the sciatic nerve. Conditions: for dose dependence of anti-hyperalgesic effects: given orally, alone; for Antihyperalgesic efficacy: Maximal efficacy (AUC: X ± SE): most efficacious dose po: Pregabalin 31.6 mg/Kg, S-ketorolac 3.16 mg/Kg, AUC of 180-min temporal course, n=6; for maximal antihyperalgesic effect (AUC): pregabalin 31.6 mg/Kg po, S-Ket 3.16 mg/Kg po; for Antihyperalgesic efficacy: Relative efficacy: relative to pregabalin, Pregabalin 31.6 mg/Kg po, S-ketorolac 3.16 mg/Kg po. The assay is classed as in vivo, Male Wistar rats. Here is the method:
(§1) Male Wistar rats were used in the experiments. […] The animals were kept in polycarbonate cages under controlled temperature and light conditions, with 12-hour light/darkness cycles and free access to food and water. All experiments were performed during the light phase of the light/darkness cycles. The animals were used and handled according to the international guidelines on Ethical Standards for Investigations of Experimental Pain established by the Committee for Research and Ethical Issues of the International Association for the Study of Pain. The number of experiment animals was kept to a minimum (n=6), and at the end of the experimental assessments the animals were sacrificed using carbon dioxide.
(§2) Immediately after the rats were anesthetized, their right hind limb sciatic nerves were dissected through an incision, in which the biceps femoris muscle was dissected for locating the most proximal site to the trifurcation of the sciatic nerve, and to apply four loose ligations with silk thread.
(§3) Once the surgery was finished, the muscle was sutured with absorbable thread, and the skin was sutured with silk thread. Sham surgery in rats was performed likewise, although without ligating the sciatic nerve. All procedures were performed under aseptic conditions. The degree of hyperalgesia and allodynia in rats subjected to sciatic nerve surgery was determined using the Von Frey test (mechanical hyperalgesia) and the acetone test (cold allodynia).
Von Frey test (mechanic hyperalgesia). Rats were placed over a metallic mesh in a clear acrylic box and remained in the box at least 10 minutes before the test, in order to allow the rats to adapt to the environment. The response was determined by means of a tactile stimulus on the sole callosities of the right hindlimb with the 15-gram Von Frey filament. Ten stimuli were applied (one stimulus approximately every 3 seconds), and the response percentage was obtained (% response=number of responses/10 ×100).
(§4) In a first stage, the experimental design of the groups and the experiments were performed as follows: • a) Several groups of 6 animals with neuropathic pain (sciatic nerve ligation) were formed.
It was decided to base assessments on 6 doses of the pregabalin DRCs (0.0316, 0.1, 0.316, 1.0, 3.16 and 10 mg/Kg) and to combine them with 4 different S-ketorolac doses (0.0316, 0.10, 0.316 and 1.0 mg/Kg p.o.).

The test system of assay [2] is cold allodynia in rats with chronic constriction injury (CCI) of the sciatic nerve. Put plainly: Acetone test (cold allodynia) in rats with chronic constriction injury of the sciatic nerve (Bennett and Xie model). The assay is classed as in vivo, Male Wistar rats. The note with it: for anti-allodynic effect: oral, temporal course 0-180 min; for dose dependence of anti-allodynic effects: given orally, alone; for Anti-allodynic efficacy: Maximal efficacy (AUC: X ± SE): most efficacious dose po: Pregabalin 31.6 mg/Kg, S-ketorolac 1.0 mg/Kg, AUC of 180-min temporal course, maximum possible 300 au, n=6; for maximal anti-allodynic effect (AUC): pregabalin 31.6 mg/Kg po, S-Ket 1.0 mg/Kg po, 180-min temporal course; for Anti-allodynic efficacy: Relative efficacy: relative to pregabalin, Pregabalin 31.6 mg/Kg po, S-ketorolac 1.0 mg/Kg po. The protocol:
as §1, §2, §3
The acetone test (cold allodynia) was performed and assessed as follows: Once the Von Frey test was finished, rats were left to rest over the metallic mesh, and after a 5-10 minute period, 0.1 mL of acetone was applied on the sole callosities of the right hindlimb with a syringe with a flexible plastic point from under the mesh. Then, a chronometer recorded the time in seconds in which the animals kept the hindlimb away from the mesh during the first 60 seconds after being exposed to acetone. The response time of the right hindlimb was measured. Three measurements were made (1 measurement every 2 minutes).
as §4
All combinations to be assessed were designed. It was decided to evaluate combinations with 24 different proportions, to have the fullest possible notion of the interaction of these 2 analgesics, and for obtaining and determining the optimal combinations in terms of efficacy and anti-allodynic potentiation.

[3] abbreviates: pregabalin 10.0 mg/Kg po alone, reached 3 h after administration.

On to `CC(C)C[C@H](CN)CC(=O)O` [Pregabalin, (3S)-3-(aminomethyl)-5-methylhexanoic acid], for which, in assay [1], the “dose dependence of anti-hyperalgesic effects” value is reported as “dose-dependent anti-hyperalgesic effects”, the “Antihyperalgesic efficacy: Maximal efficacy (AUC: X ± SE)” value is 220.4 ± 12.3, the “maximal antihyperalgesic effect (AUC)” value turned out to be 220.4±12.3 ua and the “Antihyperalgesic efficacy: Relative efficacy” value is 1.0. In assay [1] (most effective oral doses given alone), the “more anti-hyperalgesia than S-ketorolac” value worked out at 49%. Also, the “antihyperalgesic effect” value in assay [1] (pregabalin 0.316 mg/Kg po alone, over the assessment period) is reported as “practically no antihyperalgesic effects”. The “antihyperalgesic Emax” value in assay [1] (setting [3]) stood at 78.3±5.4%. The “anti-allodynic effect” value in assay [2] (0.0316 mg/Kg dose) is reported as “almost no anti-allodynic effect”. Moreover, the “anti-allodynic effect” value in assay [2] (31.6 mg/Kg dose) was “significant anti-allodynic effect”. In assay [2], the “dose dependence of anti-allodynic effects” value is recorded as “dose-dependent anti-allodynic effects”, the “Anti-allodynic efficacy: Maximal efficacy (AUC: X ± SE)” value is 241.6 ± 9.5, the “maximal anti-allodynic effect (AUC)” value amounted to 241.6±9.5 ua and the “Anti-allodynic efficacy: Relative efficacy” value worked out at 1.0. In assay [2] (setting [3]), the “anti-allodynic Emax” value was 83.4±3.7%.

Turning to `O=C(c1ccccc1)c1ccc2n1CCC2C(=O)O` (centres unmarked) [S-ketorolac, 5-Benzoyl-2,3-dihydro-1H-pyrrolizine-1-carboxylic acid], the “antihyperalgesic effect” value in assay [1] (S-ketorolac 1.0 mg/Kg po alone) is on record as “little antihyperalgesic effect”. Also, in assay [1] (S-ketorolac 1.0 mg/Kg po alone, reached 60 minutes after administration), the “antihyperalgesic Emax” value was determined as 40.0±5.8%. The “antihyperalgesic efficacy as percent of that delivered by pregabalin” value in assay [1] (S-ketorolac 3.16 mg/Kg po vs pregabalin 31.6 mg/Kg po) amounted to 51%. In assay [1], the “dose dependence of anti-hyperalgesic effects” value is given as “dose-dependent anti-hyperalgesic effects”, the “Antihyperalgesic efficacy: Maximal efficacy (AUC: X ± SE)” value is reported as 112.5 ± 3.5, the “maximal antihyperalgesic effect (AUC)” value is listed as 112.5±3.5 ua and the “Antihyperalgesic efficacy: Relative efficacy” value amounted to 0.51. In addition, in assay [2] (0.0316 mg/Kg dose), the “anti-allodynic effect” value is “almost no anti-allodynic effect”. The “anti-allodynic effect” value in assay [2] (1.0 mg/Kg dose) is listed as “significant anti-allodynic effect”. Also, in assay [2] (S-ketorolac 0.316 mg/Kg po alone, reached 30 minutes after administration), the “anti-allodynic Emax” value is recorded as 44.0±7.7%. For the same molecule, the “anti-allodynic efficacy as percent of that induced by oral pregabalin” value in assay [2] (S-ketorolac 1.0 mg/Kg po vs pregabalin 31.6 mg/Kg po) was found to be 46%. Moreover, in assay [2], the “dose dependence of anti-allodynic effects” value is listed as “dose-dependent anti-allodynic effects”, the “Anti-allodynic efficacy: Maximal efficacy (AUC: X ± SE)” value came to 111.2 ± 20.3, the “maximal anti-allodynic effect (AUC)” value came out at 111.2±20.3 ua and the “Anti-allodynic efficacy: Relative efficacy” value was 0.46.
